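Where inhibition never reached the appropriate level, the endpoint shown equals the highest concentration tested. Otherwise, values were interpolated linearly from a five-concentration, 48-hour dose response in 96-well plates. Here, GI50 denotes the concentration required for 50% inhibition of growth.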 The source made the active and inactive calls. No stated cut-off is given here; in the data, active = GI50 up to about 1.1 µM and inactive = higher.
What was measured:
Assay in all cases: inhibition of tumour cell growth, NCI panel, 48 h
EKVX = system: EKVX
MDA-MB-435 = system: MDA-MB-435
SW-620 = system: SW-620
MCF7 = system: MCF7
NCI-H460 = system: NCI-H460
MDA-MB-231 = system: MDA-MB-231
SK-MEL-28 = system: SK-MEL-28
COLO 205 = system: COLO 205
K562 = system: K562
OVCAR-5 = system: OVCAR-5
IGROV-1 = system: IGROV-1
A549 = system: A549
SF-295 = system: SF-295
786-0 = system: 786-0
T47D = system: T47D
SK-OV-3 = system: SK-OV-3
NCI-H522 = system: NCI-H522
HOP-92 = system: HOP-92
SF-268 = system: SF-268
RXF 393 = system: RXF 393

Measured: GI50

COc1cc2ccc(C(=O)NCCCNC(=O)c3ccc4cc(OC)c(OC)cc4c3)cc2cc1OC
inactive: EKVX > 100 µM | MDA-MB-435 > 100 µM | SW-620 > 100 µM | MCF7 > 100 µM | NCI-H460 33.7 µM | MDA-MB-231 97.1 µM | SK-MEL-28 > 100 µM | COLO 205 > 100 µM | K562 > 100 µM | OVCAR-5 > 100 µM | IGROV-1 > 100 µM | A549 > 100 µM | SF-295 > 100 µM | 786-0 > 100 µM | T47D > 100 µM | SK-OV-3 > 100 µM | NCI-H522 > 100 µM | HOP-92 > 100 µM | SF-268 > 100 µM

CC(=O)Nc1ccc(C(=O)NN2C(=O)C(Cl)C2c2cc(Br)ccc2O)cc1 (stereo unspecified)
inactive: EKVX 28.8 µM | MDA-MB-435 7.69 µM | SW-620 6.21 µM | MCF7 3.84 µM | NCI-H460 3.09 µM | MDA-MB-231 3.6 µM | SK-MEL-28 4.38 µM | COLO 205 36.1 µM | K562 6.41 µM | OVCAR-5 19.2 µM | IGROV-1 17.6 µM | A549 5.46 µM | SF-295 3.66 µM | 786-0 3.54 µM | T47D 4.16 µM | SK-OV-3 4.42 µM | NCI-H522 6.55 µM | HOP-92 15.2 µM | SF-268 1.91 µM

CCCCCC/C=C/C#CCCCCCCCC(=O)O
inactive: EKVX > 100 µM | MDA-MB-435 > 100 µM | SW-620 > 100 µM | MCF7 > 100 µM | NCI-H460 > 100 µM | MDA-MB-231 > 100 µM | SK-MEL-28 > 100 µM | COLO 205 > 100 µM | K562 > 100 µM | OVCAR-5 > 100 µM | IGROV-1 > 100 µM | A549 > 100 µM | SF-295 > 100 µM | 786-0 > 100 µM | T47D > 100 µM | SK-OV-3 > 100 µM | NCI-H522 > 100 µM | HOP-92 > 100 µM | SF-268 > 100 µM

Cc1cccc2c1c(=O)c1c(O)c3c(cc1n2C)OC(C)(C)C=C3
inactive: EKVX > 10 µM | MDA-MB-435 > 10 µM | SW-620 > 10 µM | MCF7 6.15 µM | NCI-H460 > 10 µM | MDA-MB-231 > 10 µM | SK-MEL-28 > 10 µM | COLO 205 > 10 µM | K562 > 10 µM | RXF 393 > 10 µM | OVCAR-5 > 10 µM | IGROV-1 > 10 µM | A549 > 10 µM | SF-295 > 10 µM | 786-0 > 10 µM | T47D > 10 µM | SK-OV-3 > 10 µM | NCI-H522 > 10 µM | SF-268 > 10 µM

Cc1[nH]c2ncn(N)c(=N)c2c1Cc1ccccc1
inactive: EKVX > 100 µM | MDA-MB-435 34.6 µM | SW-620 > 100 µM | MCF7 33 µM | MDA-MB-231 > 100 µM | SK-MEL-28 > 100 µM | COLO 205 > 100 µM | K562 > 100 µM | OVCAR-5 > 100 µM | IGROV-1 80.4 µM | A549 58.3 µM | SF-295 > 100 µM | 786-0 > 100 µM | T47D 4.35 µM | SK-OV-3 > 100 µM | NCI-H522 49.2 µM | HOP-92 6.7 µM

Cc1ccc(C2c3c(n(C)c(=O)n(C)c3=O)OC(N(C)C)(N(C)C)C2(F)F)cc1 (stereo unspecified)
inactive: EKVX > 100 µM | MDA-MB-435 > 100 µM | SW-620 > 100 µM | MCF7 > 100 µM | NCI-H460 > 100 µM | MDA-MB-231 > 100 µM | SK-MEL-28 > 100 µM | COLO 205 > 100 µM | K562 > 100 µM | RXF 393 > 100 µM | OVCAR-5 > 100 µM | A549 > 100 µM | SF-295 > 100 µM | 786-0 > 100 µM | T47D > 100 µM | SK-OV-3 > 100 µM | HOP-92 > 100 µM | SF-268 > 100 µM

O=C(O)C(Cc1ccc2c(c1)CCC2)(Cc1ccc2c(c1)CCC2)C(=O)O
inactive: EKVX > 100 µM | MDA-MB-435 > 100 µM | SW-620 > 100 µM | MCF7 > 100 µM | NCI-H460 > 100 µM | MDA-MB-231 29.2 µM | SK-MEL-28 > 100 µM | COLO 205 > 100 µM | K562 > 100 µM | RXF 393 > 100 µM | OVCAR-5 > 100 µM | IGROV-1 > 100 µM | A549 > 100 µM | SF-295 > 100 µM | 786-0 > 100 µM | T47D > 100 µM | SK-OV-3 > 100 µM | NCI-H522 > 100 µM | SF-268 > 100 µM

COc1ccc(N2C(=O)C3c4[nH]c5ccccc5c4C4CCC(C(C)C)CC4C3C2=O)cc1 (stereo unspecified)
inactive: EKVX > 100 µM | MDA-MB-435 > 100 µM | SW-620 > 100 µM | MCF7 > 100 µM | NCI-H460 > 100 µM | MDA-MB-231 > 100 µM | SK-MEL-28 > 100 µM | COLO 205 > 100 µM | K562 > 100 µM | OVCAR-5 > 100 µM | IGROV-1 > 100 µM | A549 > 100 µM | SF-295 53 µM | 786-0 > 100 µM | T47D > 100 µM | SK-OV-3 37.6 µM | NCI-H522 > 100 µM | HOP-92 > 100 µM | SF-268 > 100 µM

S=C1Nc2cnc3ccccc3c2SC1c1ccccc1 (stereo unspecified)
inactive: EKVX > 100 µM | MDA-MB-435 83.4 µM | MCF7 > 100 µM | NCI-H460 > 100 µM | MDA-MB-231 > 100 µM | SK-MEL-28 92.3 µM | COLO 205 > 100 µM | K562 > 100 µM | RXF 393 13 µM | OVCAR-5 > 100 µM | IGROV-1 > 100 µM | A549 > 100 µM | SF-295 61.7 µM | 786-0 > 100 µM | T47D > 100 µM | SK-OV-3 72.8 µM | NCI-H522 > 100 µM | SF-268 > 100 µM

N#Cc1c(Nc2nc3ccccc3s2)c2ccccc2n2c1nc1ccccc12
inactive: EKVX > 100 µM | MDA-MB-435 > 100 µM | SW-620 > 100 µM | MCF7 > 100 µM | NCI-H460 > 100 µM | MDA-MB-231 48.4 µM | SK-MEL-28 > 100 µM | COLO 205 > 100 µM | OVCAR-5 > 100 µM | IGROV-1 > 100 µM | A549 > 100 µM | SF-295 82 µM | 786-0 29 µM | T47D > 100 µM | NCI-H522 > 100 µM | HOP-92 > 100 µM | SF-268 > 100 µM

CCC12CCCN(Cc3ccccc3)C1c1c([nH]c3ccccc13)C(C(=O)OC)C2 (stereo unspecified)
inactive: MDA-MB-435 > 10 µM | SW-620 > 10 µM | MCF7 > 10 µM | MDA-MB-231 > 10 µM | SK-MEL-28 > 10 µM | COLO 205 > 10 µM | K562 > 10 µM | OVCAR-5 7.89 µM | IGROV-1 > 10 µM | A549 > 10 µM | SF-295 > 10 µM | 786-0 > 10 µM | T47D 5.75 µM | SK-OV-3 > 10 µM | NCI-H522 > 10 µM | HOP-92 > 10 µM | SF-268 > 10 µM

Source: ChEMBL document CHEMBL1201862, “PubChem BioAssay data set” (2004)
